According to patent EP4570800A1, “CRYSTAL FORM OF PYRIDINOPYRIMIDINONE COMPOUND, ACID SALT THEREOF, CRYSTAL FORM OF ACID SALT THEREOF, AND USE” (Wuhan Humanwell Innovative Drug Research and Development …, priority 2022, dated 2024):
Where a name gives a salt, the structure may show the parent alone.

Tests used:
[1] = Solid state stability (XRPD and HPLC); format: physicochemical
Experimental: The purity test, dynamic solubility test, and stability test in the assay were measured with an Agilent 1260 high-performance liquid chromatograph, and the salt formation molar ratio of ions was tested by ion chromatography, and the analytical conditions are shown in Table 5 and Table 6.
Table 56 Summary of solid state stability evaluation

[2] = Dynamic solubility in water, SGF, FaSSIF and FeSSIF; settings: for S: solubility: 37°C, solid feed concentration 10 mg/mL; for pH: pH value of the filtrate
Experimental: 100 mg of NaCl and 50 mg of Triton X-100 were weighed into a 50 mL volumetric flask, and purified water was added to complete dissolution. 816 µL of 1 M hydrochloric acid was added thereto, and the pH was adjusted to 1.8 with 1 M hydrochloric acid or 1 M NaOH solution. Purified water was added to make up to volume.
340 mg of anhydrous NaH2PO4, 42 mg of NaOH, and 620 mg of NaCl were weighed into a 100 mL volumetric flask. Purified water was added to complete dissolution. The pH was adjusted to 6.5 with 1 M hydrochloric acid or 1 M NaOH solution. Purified water was added to make up to volume. 110 mg of SIF powder was then weighed into a 50 mL volumetric flask, added with the above solution to complete dissolution and make up to volume.
About 90 mL of purified water was added to complete dissolution, and the pH was adjusted to 5.0 with 1 M hydrochloric acid or 1 M NaOH solution. Purified water was added to make up to volume. 560 mg of SIF powder was then weighed into a 50 mL volumetric flask, added with the above solution to complete dissolution and make up to volume.
Rotating mixing was carried out at 37°C at a solid feed concentration of 10 mg/mL (calculated as the compound of formula I). […] After sampling at each time point, the samples were centrifuged (10000 rpm) and filtered (0.45 µm PTFE filter head), and the HPLC concentration and pH value of the filtrate were measured.

[3] = XRPD after 25°C/60%RH/open, 1 week
[4] = XRPD after 40°C/75%RH/open, 1 week

SMILES	HPLC results Purity (area%) ([1]; 25°C/60%RH/open, 1 week)	HPLC results Purity (area%) ([1]; 40°C/75%RH/open, 1 week)	HPLC results Purity (area%) ([1]; Onset)	Crystal form [1, 3]	Crystal form [1, 4]	S: solubility ([2]; FaSSIF, 1 hour, 60 min)	S: solubility ([2]; FaSSIF, 4 hours, 240 min)	S: solubility ([2]; FaSSIF, 24 hours, 1440 min)	S: solubility ([2]; H2O, 1 hour, 60 min)	S: solubility ([2]; H2O, 4 hours, 240 min)	S: solubility ([2]; H2O, 24 hours, 1440 min)	S: solubility ([2]; SGF, 1 hour, 60 min)	S: solubility ([2]; SGF, 4 hours, 240 min)	S: solubility ([2]; SGF, 24 hours, 1440 min)	pH ([2]; FaSSIF, 1 hour)	pH ([2]; FaSSIF, 4 hours)	pH ([2]; FaSSIF, 24 hours)	pH ([2]; FeSSIF, 1 hour)	pH ([2]; FeSSIF, 4 hours)	pH ([2]; FeSSIF, 24 hours)	also measured
Cc1nc(N[C@H](C)c2cccc(S(F)(F)(F)(F)F)c2)c2cn(C3(CF)CC3)c(=O)cc2n1 [Crystal form A of ethanesulfonate salt]	99.15 area%	99.29 area%	99.10 area%	Crystal form A of ethanesulfonate salt	Crystal form A of ethanesulfonate salt	620 µg/mL	1610 µg/mL	2520 µg/mL	10060 µg/mL	9810 µg/mL	10080 µg/mL	10420 µg/mL	10130 µg/mL	10110 µg/mL	4.5	4.2	3.7	4.8	4.8	4.7	S: solubility ([2]; FeSSIF, 1 hour, 60 min): 2790 µg/mL; S: solubility ([2]; FeSSIF, 4 hours, 240 min): 3620 µg/mL; S: solubility ([2]; FeSSIF, 24 hours, 1440 min): 3700 µg/mL; pH ([2]; H2O, 1 hour): 2.9; pH ([2]; H2O, 4 hours): 3.1; pH ([2]; H2O, 24 hours): 2.8; pH ([2]; SGF, 1 hour): 1.6; pH ([2]; SGF, 4 hours): 1.5; pH ([2]; SGF, 24 hours): 1.5
Cc1nc(N[C@H](C)c2cccc(S(F)(F)(F)(F)F)c2)c2cn(C3(CF)CC3)c(=O)cc2n1 [Crystal form A of fumarate salt]	98.67 area%	98.70 area%	98.67 area%	Crystal form A of fumarate salt	Crystal form A of fumarate salt	360 µg/mL	320 µg/mL	320 µg/mL	550 µg/mL	570 µg/mL	610 µg/mL	1960 µg/mL	1940 µg/mL	2090 µg/mL	4.8	4.6	4.3	4.6	4.8	4.7	pH ([2]; H2O, 1 hour): 4.2; pH ([2]; H2O, 4 hours): 4.2; pH ([2]; H2O, 24 hours): 4.1; pH ([2]; SGF, 1 hour): 1.8; pH ([2]; SGF, 4 hours): 2.0; pH ([2]; SGF, 24 hours): 1.7
Cc1nc(N[C@H](C)c2cccc(S(F)(F)(F)(F)F)c2)c2cn(C3(CF)CC3)c(=O)cc2n1 [Crystal form A of methanesulfonate salt]	99.21 area%	99.26 area%	99.18 area%	Crystal form A of methanesulfonate salt	Crystal form A of methanesulfonate salt	1440 µg/mL	1610 µg/mL	1830 µg/mL	10250 µg/mL	10160 µg/mL	9920 µg/mL	9760 µg/mL	9880 µg/mL	10130 µg/mL	4.3	4.4	4.0	4.8	4.8	4.8	S: solubility ([2]; FeSSIF, 1 hour, 60 min): 4040 µg/mL; S: solubility ([2]; FeSSIF, 4 hours, 240 min): 4160 µg/mL; S: solubility ([2]; FeSSIF, 24 hours, 1440 min): 4240 µg/mL; pH ([2]; H2O, 1 hour): 3.5; pH ([2]; H2O, 4 hours): 3.5; pH ([2]; H2O, 24 hours): 3.1; pH ([2]; SGF, 1 hour): 1.7; pH ([2]; SGF, 4 hours): 1.8; pH ([2]; SGF, 24 hours): 1.6
